A word on the ED50: it is the dose that gives a 50% effect, or the effect in half of the subjects.

The source of these data is US4421912A, “Cephalosporin derivatives” (Takeda Chemical Industries, Ltd., priority 1973, dated 1983).

In brackets after ≈: the same amount, converted by molar mass. Read-outs that look alike come from different tables or passages of the source.

The test system of test [1] is Escherichia coli 0111. Description: Protective Effect on Infected Mice. Particulars: Escherichia coli, 0111, sc, 168 h, male ICR/SLC mice, i.p. E. coli 0111, single subcutaneous dose immediately after challenge, 7 days. It counts as in vivo. The source says:
Protective Effect (ED50 * , mg/kg) on Infected Mice
*Test animals: male mice (ICR/SLC) 5 mice per group per single dose
Infection: intraperitoneally with Escherichia coli 0111
Administration: a single subcutaneous dose immediately after challenge
Observation period: 7 days
*Test animals: male mice (ICR/SLC) 5 mice per group single dose

The test system of test [2] is P. morganii Eb53. Description: Antibacterial spectra, agar dilution method. Particulars: P. morganii Eb53, agar dilution method; for MIC: Morganella morganii, Table 11, read-out: Antibacterial spectra; for Antibacterial spectra: table in Example 16. The class given is cell-based. An excerpt:
(§1) (mcg/ml, agar dilution method)
(§2) (mcg./ml., agar dilution method)
Background: In agar dilution, organisms are placed on agar that contains the substance at set levels.

The test system of test [3] is K. pneumoniae DT. Kind of test: Antibacterial spectra, agar dilution method. Particulars: Klebsiella pneumoniae. It counts as cell-based.
The test system of test [4] is P. vulgaris Eb-57. Kind of test: Antibacterial spectra, agar dilution method. The class given is cell-based. Particulars: Proteus vulgaris, EB57; P. vulgaris Eb-57; agar dilution method; table in Example 10; read-out: Antibacterial spectra. An excerpt: |(mcg/ml., agar dilution method)
The subject of test [5] is E. coli 0-111. Description: Antibacterial spectra, agar dilution method. The class given is cell-based.
Description: (§3) (mcg/ml., agar dilution method)
as §3, §1, §2

Test [6] concerns E. coli NIHJ JC-2. Description: Antibacterial spectra, agar dilution method. Particulars: Escherichia coli. The class given is cell-based.
Description: as §3, §3, §1, §2

The test system of test [7] is S. aureus 209P. Description: Antibacterial spectra, agar dilution method. It counts as cell-based. Particulars: Staphylococcus aureus.
Description: as §3, §3, §1, §2

Test [8] deals with S. aureus 1840. Kind of test: Antibacterial spectra, agar dilution method. The class given is cell-based.
Description: as §3, §3, §1, §2

For test [9], the system named is P. vulgaris Eb-58. Kind of test: Antibacterial spectra, agar dilution method. It counts as cell-based. To be noted: Proteus vulgaris, EB58, tables in Examples 13 and 16.
Description: as §3, §1

In test [10] the test system is E. coli T-7. Kind of test: Antibacterial spectra, agar dilution method. It counts as cell-based. To be noted: Escherichia coli, T7; E. coli T-7; agar dilution method; Table 11; read-out: Antibacterial spectra. The source says:
(§4) |(mcg./ml., agar dilution method)

Test [11] concerns P. vulgaris IFO 3988. Kind of test: Antibacterial spectra, agar dilution method. The class given is cell-based. Particulars: Proteus vulgaris, IFO3988; P. vulgaris IFO 3988; agar dilution method; Table 11; read-out: Antibacterial spectra.
Description: as §4

Where [12] appears, read: Escherichia coli, 0111, E. coli 0-111, Table 11.
Where [13] appears, read: Escherichia coli, 0111, E. coli 0-111, tables in the Examples.
Setting [14] is: NIHJJC2, read-out: Antibacterial spectra, E. coli NIHJ JC-2, Table 11.
[15] abbreviates: NIHJJC2, read-out: Antibacterial spectra, E. coli NIHJ JC-2, tables in the Examples.
Where [16] appears, read: 209P, read-out: Antibacterial spectra, S. aureus 209P, Table 11.
[17] abbreviates: S. aureus 209P, tables in the Examples, read-out: Antibacterial spectra.
The mark [18] stands for this setting: Staphylococcus aureus, 1840, read-out: Antibacterial spectra, S. aureus 1840, Table 11.
The mark [19] stands for this setting: Staphylococcus aureus, 1840, read-out: Antibacterial spectra, S. aureus 1840, tables in the Examples.

Take `Cc1nnc(SCC2=C(C(=O)O)N3C(=O)[C@@H](NC(=O)Cn4cnnn4)[C@H]3SC2)s1` [Cephazolin, reference compound]: the median effective dose (ED50) in test [1] (Table 14, read-out: ED50) was 3.1 mg/kg. For the same molecule, the MIC in [2] worked out at 100 µg/mL (≈ 220 µM); in test [3] (Table 11) it was 1.56 µg/mL (≈ 3.43 µM); in test [3] (tables in the Examples) it was 1.56 µg/mL (≈ 3.43 µM); in test [4] it was 50 µg/mL (≈ 110 µM); in test [5] (setting [12]), 0.78 µg/mL (≈ 1.72 µM); in [5] (setting [13]), 1.56 µg/mL (≈ 3.43 µM). Also, the MIC in [6] (setting [14]) was 1.56 µg/mL (≈ 3.43 µM); in test [6] (setting [15]) it was 1.56 µg/mL (≈ 3.43 µM); in [7] (setting [16]) it was at most 0.2 µg/mL; in test [7] (209P, read-out: Antibacterial spectra, S. aureus 209P, tables in the Examples) it was 0.1 µg/mL (≈ 0.22 µM); in test [7] (setting [17]), 0.01 µg/mL (≈ 0.022 µM); in [8] (setting [18]), 0.78 µg/mL (≈ 1.72 µM). For the same molecule, the MIC turned out to be 1.56 µg/mL (≈ 3.43 µM) in [8] (setting [19]), 6.25 µg/mL (≈ 13.8 µM) in [9], 50 µg/mL (≈ 110 µM) in [10] and 6.25 µg/mL (≈ 13.8 µM) in [11]. The Antibacterial spectra in test [2] came out at 100 µg/mL.

With `O=C(Cc1cccs1)N[C@@H]1C(=O)N2C(C(=O)[O-])=C(C[n+]3ccccc3)CS[C@H]12` [Cephaloridine, reference compound], the ED50 in test [1] (Table 12, read-out: Protective Effect (ED50) on Infected Mice) is 2.81 mg/kg; in test [1] (Table 13, read-out: ED50) it was 1.94 mg/kg; in [1] (Table 14, read-out: ED50), 3.57 mg/kg. Also, the MIC is above 100 µg/mL in test [2]; 1.56 µg/mL (≈ 3.75 µM) in [3] (Table 11); 3.12 µg/mL (≈ 7.52 µM) in test [3] (tables in the Examples); above 100 µg/mL in test [4]; 1.56 µg/mL (≈ 3.75 µM) in test [5] (setting [12]); 3.12 µg/mL (≈ 7.52 µM) in test [5] (setting [13]). Further, the MIC was 3.13 µg/mL (≈ 7.53 µM) in test [6] (setting [14]); 6.25 µg/mL (≈ 15 µM) in test [6] (setting [15]); at most 0.2 µg/mL in test [7] (setting [16]); 0.05 µg/mL (≈ 0.12 µM) in [7] (setting [17]); 0.39 µg/mL (≈ 0.939 µM) in test [8] (setting [18]); 0.39 µg/mL (≈ 0.939 µM) in test [8] (setting [19]). In addition, the results for the MIC in test [9], in test [10] and in test [11] were 12.5 µg/mL (≈ 30.1 µM), above 100 µg/mL and 6.25 µg/mL (≈ 15 µM), respectively. For the same molecule, the Antibacterial spectra in test [2] was above 100 µg/mL.
